Measurements as given in PubChem BioAssay AID330 (DTP/NCI, 2004).
Where “and” joins values, the source holds several entries; their conditions need not be identical. Identical values can stand only once. Inconclusive results and toxic doses are left out. Rule for the calls: active = survival T/C of 150% or more; inactive = T/C below 125% in these data.

System: P388 leukemia ip, CD2F1 mice, survival T/C
Test: NCI In Vivo Anticancer Drug Screen. Data for tumor model P388 Leukemia (intraperitoneal) in CD2F1 (CDF1) mice
Details: endpoint: median survival time, higher = longer survival
Procedure, shortened: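 Mice carrying the transplanted tumor received test compound or vehicle. Survival was recorded in each group, and the value is the treated-group measurement divided by that of the vehicle-treated control group.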

[1] = dose: 12.5 mg/kg/injection, schedule: Q01DX005 (ip), vehicle: Klucel (hydroxypropylcellulose) (HPC)
[2] = dose: 25.0 mg/kg/injection, schedule: Q01DX005 (ip), vehicle: Klucel (hydroxypropylcellulose) (HPC)
[3] = dose: 50.0 mg/kg/injection, schedule: Q01DX005 (ip), vehicle: Klucel (hydroxypropylcellulose) (HPC)
[4] = dose: 50.0 mg/kg/injection, schedule: Q01DX005 (ip), vehicle: saline with Tween-80
[5] = dose: 100.0 mg/kg/injection, schedule: Q01DX005 (ip), vehicle: saline with Tween-80
[6] = dose: 200.0 mg/kg/injection, schedule: Q01DX005 (ip), vehicle: saline with Tween-80
[7] = dose: 25.0 mg/kg/injection, schedule: Q01DX009 (ip), vehicle: Klucel (hydroxypropylcellulose) (HPC)
[8] = dose: 50.0 mg/kg/injection, schedule: Q01DX009 (ip), vehicle: Klucel (hydroxypropylcellulose) (HPC)
[9] = dose: 50.0 mg/kg/injection, schedule: Q01DX009 (ip), vehicle: saline with Tween-80
[10] = dose: 100.0 mg/kg/injection, schedule: Q01DX009 (ip), vehicle: saline with Tween-80
[11] = dose: 200.0 mg/kg/injection, schedule: Q01DX009 (ip), vehicle: saline with Tween-80
[12] = dose: 60.0 mg/kg/injection, schedule: Q01DX005 (ip), vehicle: saline with Tween-80
[13] = dose: 120.0 mg/kg/injection, schedule: Q01DX005 (ip), vehicle: saline with Tween-80
[14] = dose: 240.0 mg/kg/injection, schedule: Q01DX005 (ip), vehicle: saline with Tween-80
[15] = dose: 100.0 mg/kg/injection, schedule: Q01DX005 (ip), vehicle: Klucel (hydroxypropylcellulose) (HPC)
[16] = dose: 200.0 mg/kg/injection, schedule: Q01DX005 (ip), vehicle: Klucel (hydroxypropylcellulose) (HPC)
[17] = dose: 100.0 mg/kg/injection, schedule: Q04DX003 (ip), vehicle: saline with Tween-80
[18] = dose: 200.0 mg/kg/injection, schedule: Q04DX003 (ip), vehicle: saline with Tween-80

Measured: T/C

Nc1ncc2[nH]c(N)nc2n1
inactive: [1] 106 % of control | [2] 97 % of control | [3] 104 % of control and 107 % of control

NS(=O)(=O)Cc1noc2ccc(F)cc12
inactive: [4] 93 % of control | [5] 104 % of control | [6] 103 % of control

CCN1C(=O)NS(=O)(=O)c2ccccc21
inactive: [4] 94 % of control | [5] 107 % of control | [6] 97 % of control

COC(=O)C(CCC(=O)CCl)N1C(=O)c2ccccc2C1=O (centres undefined)
inactive: [7] 108 % of control | [8] 106 % of control

COc1cc2c3cc1Oc1cc(ccc1O)C[C@@H]1c4c(cc(OC)c(O)c4Oc4ccc(cc4)C[C@@H]3[N+](C)(C)CC2)CC[N+]1(C)C
inactive: dose: 0.06 mg/kg/injection, schedule: Q01DX009 (ip), vehicle: saline with Tween-80 96 % of control | dose: 0.13 mg/kg/injection, schedule: Q01DX009 (ip), vehicle: saline with Tween-80 92 % of control | dose: 0.25 mg/kg/injection, schedule: Q01DX009 (ip), vehicle: saline with Tween-80 89 % of control

Nc1nc(N)nc(N/C=C/C(=O)O)n1
inactive: dose: 50.0 mg/kg/injection, schedule: Q01DX005 (ip), vehicle: water 99 % of control | dose: 100.0 mg/kg/injection, schedule: Q01DX005 (ip), vehicle: water 105 % of control | dose: 200.0 mg/kg/injection, schedule: Q01DX005 (ip), vehicle: water 106 % of control

CCCCCCC(=O)/C=C/c1ccc2c(c1)OCO2
inactive: [9] 96 % of control | [10] 102 % of control | [11] 91 % of control

COc1ccc2nc3cc(Cl)ccc3c(NCCCCN3CCCC3)c2n1
inactive: dose: 12.5 mg/kg/injection, schedule: Q01DX009 (ip), vehicle: water 101 % of control | dose: 25.0 mg/kg/injection, schedule: Q01DX009 (ip), vehicle: water 105 % of control

Cc1s\c(=N/N=N/N=c2\sc(C)c(C)n2Cc2ccccc2)n(Cc2ccccc2)c1C
inactive: [12] 103 % of control | [13] 97 % of control | [14] 103 % of control

ClC(Cl)(Cl)C(N1CCN(c2ccccc2)CC1)N1CCN(c2ccccc2)CC1
inactive: [10] 101 % of control | [11] 101 % of control | dose: 400.0 mg/kg/injection, schedule: Q01DX009 (ip), vehicle: saline with Tween-80 106 % of control | dose: 600.0 mg/kg/injection, schedule: Q01DX009 (ip), vehicle: saline with Tween-80 100 % of control

COc1cc(OC)cc(-c2n[se]c(-c3cc(OC)cc(OC)c3)n2)c1
inactive: dose: 1.56 mg/kg/injection, schedule: Q01DX009 (ip), vehicle: saline with Tween-80 87 % of control | [9] 89 % of control

CC(C)CNCC(=O)Nc1ccc(-c2ccc(NC(=O)CNCC(C)C)cc2)cc1
inactive: [3] 97 % of control | [15] 97 % of control | [16] 95 % of control

CCOC(=O)c1cccc2c([N+](=O)[O-])c([N+](=O)[O-])cc(C(=O)OCC)c12
inactive: dose: 100.0 mg/kg/injection, schedule: Q01DX001 (ip), vehicle: saline with Tween-80 99 % of control | dose: 200.0 mg/kg/injection, schedule: Q01DX001 (ip), vehicle: saline with Tween-80 102 % of control | dose: 400.0 mg/kg/injection, schedule: Q01DX001 (ip), vehicle: saline with Tween-80 99 % of control

COC(=O)c1nc(N)nc(C(=O)OC)c1C(=O)Cc1ccccc1
inactive: [12] 100 % of control | [13] 103 % of control

CN(C)c1c2c(oc(=O)c1Cl)-c1ccccc1SCC2
inactive: [12] 101 % of control | [13] 100 % of control | [14] 91 % of control

CC(/C=N\N=C(N)N)=N/N=C(N)N
inactive: dose: 14.6 mg/kg/injection, schedule: Q01DX009 (ip), vehicle: saline 100 % of control | dose: 22.0 mg/kg/injection, schedule: Q01DX009 (ip), vehicle: saline 120 % of control

CCOC(=O)C[C@@]1(C)C(=O)O[C@H](c2ccccc2)N1C(=O)c1ccccc1
inactive: [12] 106 % of control | [13] 100 % of control | [14] 94 % of control

COC(=O)C(O)NC(N)=O (centres undefined)
inactive: [9] 98 % of control | [10] 94 % of control | [11] 89 % of control

CSc1nc(N)c(C(=O)c2sc(SC)nc2N)s1
inactive: [1] 100 % of control | [2] 92 % of control | [3] 90 % of control and 97 % of control

Oc1c(-c2ccccc2)nn(O)c1-c1ccccc1
inactive: dose: 12.5 mg/kg/injection, schedule: Q01DX009 (ip), vehicle: Klucel (hydroxypropylcellulose) (HPC) 106 % of control | [7] 100 % of control | [8] 95 % of control

CC1(C)Cc2[nH]c3ccccc3c2C(C)(C)N1
inactive: [12] 105 % of control and 99 % of control | [13] 100 % of control | [14] 91 % of control

COc1cc(C2c3cc4c(cc3OC(C)(OC)C2C(C)=O)OCO4)cc(OC)c1O (centres undefined)
inactive: [12] 91 % of control | [13] 95 % of control | [14] 97 % of control

C1CCC2(CC1)SSC1(CCCCC1)S2
inactive: dose: 100.0 mg/kg/injection, schedule: Q04DX003 (ip), vehicle: other 109 % of control | dose: 200.0 mg/kg/injection, schedule: Q04DX003 (ip), vehicle: other 109 % of control | dose: 400.0 mg/kg/injection, schedule: Q04DX003 (ip), vehicle: other 113 % of control

OC(C(=S)N1CCOCC1)(c1ccccc1)c1ccccc1
inactive: [8] 105 % of control | dose: 100.0 mg/kg/injection, schedule: Q01DX009 (ip), vehicle: Klucel (hydroxypropylcellulose) (HPC) 103 % of control | dose: 200.0 mg/kg/injection, schedule: Q01DX009 (ip), vehicle: Klucel (hydroxypropylcellulose) (HPC) 98 % of control

COC(=O)C1CC(c2ccccc2)N(c2ccccc2)O1 (centres undefined) (tested in a mixture with another compound)
inactive: [17] 95 % of control | [18] 96 % of control | dose: 400.0 mg/kg/injection, schedule: Q04DX003 (ip), vehicle: saline with Tween-80 94 % of control

CCCOC(=O)/C=C(\Cl)C(=O)OCCC
inactive: dose: 6.25 mg/kg/injection, schedule: Q01DX009 (ip), vehicle: saline with Tween-80 104 % of control | dose: 12.5 mg/kg/injection, schedule: Q01DX009 (ip), vehicle: saline with Tween-80 109 % of control | dose: 25.0 mg/kg/injection, schedule: Q01DX009 (ip), vehicle: saline with Tween-80 113 % of control

CC1CCC(n2cnc3c(Cl)ncnc32)O1 (centres undefined)
inactive: [2] 97 % of control | [3] 103 % of control | [15] 110 % of control | [16] 112 % of control | dose: 400.0 mg/kg/injection, schedule: Q01DX005 (ip), vehicle: Klucel (hydroxypropylcellulose) (HPC) 114 % of control

CC(=O)O[C@@H]1C[C@@](C)(C(=O)[C@H]2COC(=O)C2)[C@@H]2CC(=O)O[C@@H]3C[C@H]4[C@H](C)C[C@H](O)C(=O)[C@]4(C)[C@@H]1[C@]23C
inactive: dose: 3.0 mg/kg/injection, schedule: Q01DX009 (ip), vehicle: saline + alcohol 98 % of control | dose: 6.0 mg/kg/injection, schedule: Q01DX009 (ip), vehicle: saline + alcohol 116 % of control | dose: 12.0 mg/kg/injection, schedule: Q01DX009 (ip), vehicle: saline + alcohol 107 % of control | dose: 24.0 mg/kg/injection, schedule: Q01DX009 (ip), vehicle: saline + alcohol 100 % of control | dose: 48.0 mg/kg/injection, schedule: Q01DX009 (ip), vehicle: saline + alcohol 107 % of control

Cc1cnc2c(N)nn(-c3ccccc3)c2n1
inactive: [17] 95 % of control | [18] 105 % of control

COc1cc(C[C@H](CO)[C@H](CO)Cc2ccc3c(c2)OCO3)cc(OC)c1OC
inactive: dose: 12.5 mg/kg/injection, schedule: Q04DX002 (ip), vehicle: acetone 100 % of control | dose: 25.0 mg/kg/injection, schedule: Q04DX002 (ip), vehicle: acetone 102 % of control | dose: 50.0 mg/kg/injection, schedule: Q04DX002 (ip), vehicle: acetone 103 % of control

CCCCCCCCCCCCCCCCCCCCCC(=O)OC
inactive: [9] 100 % of control | [10] 100 % of control | [17] 91 % of control | [11] 100 % of control | [18] 87 % of control

CC(C)CCCC(C)C1CCC2C3CCC4CC(OP(=O)(O)O)CCC4(C)C3CCC12C (centres undefined)
inactive: [9] 99 % of control | [10] 96 % of control | [11] 93 % of control

O=C1Cc2ccccc2N1C(=O)c1cccc(Br)c1
inactive: dose: 100.0 mg/kg/injection, schedule: Q01DX001 (ip), vehicle: Klucel (hydroxypropylcellulose) (HPC) 98 % of control | dose: 200.0 mg/kg/injection, schedule: Q01DX001 (ip), vehicle: Klucel (hydroxypropylcellulose) (HPC) 95 % of control
